The record followed here is patent publication US6914064B2, “1,4-Disubstituted piperazine derivatives useful as uro-selective α1-adrenoceptor blockers” (Ranbaxy Laboratories Limited, priority 2000, dated 2005).

Counter-ions that a name gives are not always drawn. Like-named read-outs stand apart in the source and are kept apart here. Where only a bound is given, the exact number is not on record here.

The target of one series is T1, α1A adrenoceptor (Rattus norvegicus, UniProt P43140).
T1 construct: from tissue; host or cells: rat submaxillary gland membranes
T1 sequence (P43140 1-466): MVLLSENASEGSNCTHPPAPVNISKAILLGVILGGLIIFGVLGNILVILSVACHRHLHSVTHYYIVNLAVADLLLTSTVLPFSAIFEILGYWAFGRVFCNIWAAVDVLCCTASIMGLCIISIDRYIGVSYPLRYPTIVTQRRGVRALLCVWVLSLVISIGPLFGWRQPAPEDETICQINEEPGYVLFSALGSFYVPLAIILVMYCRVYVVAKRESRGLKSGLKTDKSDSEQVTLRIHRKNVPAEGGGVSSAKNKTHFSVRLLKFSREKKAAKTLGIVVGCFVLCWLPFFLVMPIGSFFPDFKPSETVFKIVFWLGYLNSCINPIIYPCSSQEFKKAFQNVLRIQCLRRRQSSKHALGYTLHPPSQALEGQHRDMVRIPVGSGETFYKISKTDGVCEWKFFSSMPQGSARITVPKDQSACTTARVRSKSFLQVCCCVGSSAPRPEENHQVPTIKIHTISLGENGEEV
The series is described as follows: Receptor binding assay, displacement of [3H]prazosin, rat submaxillary membranes. The following applies: for Selectivity α1B/α1A: ratio of Ki α1B (rat liver) / α1A (rat submaxillary). On the procedure:
Receptor binding assays were performed using native α-adrenoceptors.
(§1) Submaxillary glands were isolated immediately after sacrifice. The liver was perfused with buffer (Tris HCl 50 mM, NaCl 100 mM, 10 mM EDTA pH 7.4). The tissues were homogenised in 10 volumes of buffer (Tris HCl 50 mM, NaCl 100 mM, EDTA 10 mM, pH 7.4). The homogenate was filtered through two layers of wet gauze and filtrate was centrifuged at 500 g for 10 min. The supernatant was subsequently centrifuged at 40,000 g for 45 min. The pellet thus obtained was resuspended in the same volume of assay buffer (Tris HCl 50 mM, EDTA 5 mM, pH 7.4) and were stored at −70° C. until the time of assay.
(§2) The membrane homogenates (150-250 μg protein) were incubated in 250 μl of assay buffer (Tris HCl 50 mM, EDTA 5 mM, pH 7.4) at 24-25° C. for 1 h. Non-specific binding was determined in the presence of 300 nM prazosin. The incubation was terminated by vacuum filtration over GF/B fibre filters. The filters were then washed with ice cold 50 mM Tris HCl buffer (pH 7.4). The filtermats were dried and bound radioactivity retained on filters was counted.The IC50 & Kd were estimated by using the non-linear curve fitting program using G Pad Prism software.

A further series deals with T2, α1B adrenoceptor (Rattus norvegicus, UniProt P15823).
T2 construct: from tissue; host or cells: rat liver membranes
T2 sequence (P15823 1-515): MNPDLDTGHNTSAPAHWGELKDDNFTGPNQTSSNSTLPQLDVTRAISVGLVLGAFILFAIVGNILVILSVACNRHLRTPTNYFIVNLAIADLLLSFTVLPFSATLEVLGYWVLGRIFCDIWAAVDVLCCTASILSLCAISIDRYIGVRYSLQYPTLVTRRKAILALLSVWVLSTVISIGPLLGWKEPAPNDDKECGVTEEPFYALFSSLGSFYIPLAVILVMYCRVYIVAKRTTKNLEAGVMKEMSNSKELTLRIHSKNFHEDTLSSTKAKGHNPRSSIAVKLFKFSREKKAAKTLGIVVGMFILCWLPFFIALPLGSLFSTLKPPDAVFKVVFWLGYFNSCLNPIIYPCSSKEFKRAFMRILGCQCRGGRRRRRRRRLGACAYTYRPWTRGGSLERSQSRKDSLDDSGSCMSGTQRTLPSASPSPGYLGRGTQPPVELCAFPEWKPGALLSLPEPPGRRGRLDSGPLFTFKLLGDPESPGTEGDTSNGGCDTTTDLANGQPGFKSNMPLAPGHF
The series is described as follows: Receptor binding assay, displacement of [3H]prazosin, rat liver membranes. On the procedure:
Receptor binding assays were performed using native α-adrenoceptors. The affinity of different compounds for α1A and α1B adrenoceptor subtypes was evaluated by studying their ability to displace specific [^3H]prazosin binding from the membranes of rat submaxillary and liver respectively (Michel et al, Br J Pharmacol, 98, 883-889 (1989)). The binding assays were performed according to U'Prichard et al. (Eur J Pharmacol, 50:87-89 (1978)) with minor modifications.
as §1
as §2, with “software. The value of inhibition constant Ki was calculated from competitive binding studies by using Cheng & Prusoff equation (Cheng & Prusoff, Biochem Pharmacol, 1973,22: 3099-3108), Ki=IC50/(1+L/Kd) where L is the concentration of [^3H]prazosin used in the particular experiment (Table I).” for “software.”

[1] abbreviates: [3H]prazosin displacement, rat submaxillary membranes, read-out: α1A (Rat submaxillary) Ki.
The mark [2] stands for this setting: [3H]prazosin displacement, rat liver membranes, read-out: α1B (Rat liver) Ki.

Compound `Cc1ccccc1N1CCN(CCCN2C(=O)[C@H]3CC=CC[C@H]3C2=O)CC1` (as salt: hydrochloride) [Compound 03, 2-[3-{4-(2-Methylphenyl)piperazin-1-yl}propyl]-3a,4,7,7a-tetrahydro-1H-isoindole-1,3(2H)-dione hydrochlolide] came in with a melting point of 186 to 187 °C.

For `O=C1[C@H]2CC=CC[C@H]2C(=O)N1CCCN1CCN(C(c2ccc(F)cc2)c2ccc(F)cc2)CC1` (as salt: hydrochloride) [Compound 19, 2-[3-{4-(Bis-4-fluorophenyl)methylpiperazin-1-yl}propyl]-3a,4,7,7a-tetrahydro-1H-isoindole-1,3(2H)-dione hydrochloride], the melting point fell in the range of 235 to 236 °C.

`Cl.O=C1C2CC=CCC2C(=O)N1CCCN1CCN(c2cccc(Cl)c2)CC1` (stereo not shown) [Compound 02, 2-[3-{4-(3-Chlorophenyl)piperazin-1-yl}propyl]-3a,4,7,7a-tetrahydro-1H-isoindole-1,3(2H)-dione hydrochloride] registered a melting point of 221 to 223 °C. On α1A adrenoceptor (setting [1]), the Ki worked out at 0.083 µM. Also, the “Selectivity α1B/α1A” value at α1A adrenoceptor turned out to be 4.8. For the same compound, the Ki on α1B adrenoceptor (setting [2]) is 0.398 µM.

For the compound `Cc1ccccc1N1CCN(CCCN2C(=O)[C@H]3CC=CC[C@H]3C2=O)CC1` [Compound 03, 2-[3-{4-(2-Methylphenyl)piperazin-1-yl}propyl]-3a,4,7,7a-tetrahydro-1H-isoindole-1,3(2H)-dione hydrochlolide], the figures for the Ki on α1A adrenoceptor (setting [1]) and at α1B adrenoceptor (setting [2]) were 0.0325 µM and 0.168 µM, respectively. Further, on α1A adrenoceptor, the “Selectivity α1B/α1A” value worked out at 5.

Compound `Cl.O=C1C2CC=CCC2C(=O)N1CCCN1CCN(c2ccc(F)cc2)CC1` (stereo not shown) [Compound 04, 2-[3-{4-(4-Fluorophenyl)piperazin-1-yl}propyl]-3a,4,7,7a-tetrahydro-1H-isoindole-1,3(2H)-dione hydrochloride] registered a melting point of 228 to 230 °C. Besides, the Ki at α1A adrenoceptor (setting [1]) was 0.08 µM. Besides, the “Selectivity α1B/α1A” value at α1A adrenoceptor is 4.5. For the same compound, the Ki at α1B adrenoceptor (setting [2]) was found to be 0.363 µM.

The compound `Cl.O=C1C2CC=CCC2C(=O)N1CCCN1CCN(c2cccc(C(F)(F)F)c2)CC1` (stereo not shown) [Compound 05, 2-[3-{4-(3-Trifluoromethylphenyl)piperazin-1-yl}propyl]-3a,4,7,7a-tetrahydro-1H-isoindole-1,3(2H)-dione hydrochloride] displayed a melting point of 215 to 217 °C. For the same compound, at α1A adrenoceptor, the affinity, expressed as Ki, was 0.259 µM and the “Selectivity α1B/α1A” value is given as 2. The compound further returned a Ki at α1B adrenoceptor of more than 0.5 µM.

In the case of `Cl.O=C1C2CC=CCC2C(=O)N1CCCN1CCN(c2ccccc2F)CC1` (stereo not shown) [Compound 06, 2-[3-{4-(2-Fluorophenyl)piperazin-1-yl}propyl]-3a,4,7,7a-tetrahydro-1H-isoindole-1,3(2H)-dione hydrochloride], the melting point was 203 to 204 °C. At α1A adrenoceptor (setting [1]), the Ki was 0.036 µM. Moreover, the “Selectivity α1B/α1A” value at α1A adrenoceptor is listed as 13. At α1B adrenoceptor (setting [2]), the Ki was determined as 0.469 µM.

As for `Cc1ccc(N2CCN(CCCN3C(=O)C4CC=CCC4C3=O)CC2)cc1C.Cl` (stereo not shown) [Compound 07, 2-[3-{4-(3,4-Dimethylphenyl)piperazin-1-yl}propyl]-3a,4,7,7a-tetrahydro-1H-isoindole-1,3(2H)-dione hydrochloride], the melting point is 194 to 196 °C. Besides, the Ki at α1A adrenoceptor (setting [1]) amounted to 0.183 µM. On α1A adrenoceptor, the “Selectivity α1B/α1A” value is 2.7. In addition, the Ki on α1B adrenoceptor (setting [2]) was more than 0.5 µM.

The compound `Cl.O=C1C2CC=CCC2C(=O)N1CCCN1CCN(c2ccc(F)cc2F)CC1` (stereo not shown) [Compound 10, 2-[3-{4-(2,4-Difluorophenyl)piperazin-1-yl}propyl]-3a,4,7,7a-tetrahydro-1H-isoindole-1,3(2H)-dione hydrochloride] came in with a melting point of 218.2 to 219 °C. Moreover, on α1A adrenoceptor (setting [1]), the Ki was 0.062 µM. Moreover, the “Selectivity α1B/α1A” value at α1A adrenoceptor came out at 2.7. For the same compound, the inhibitory constant (Ki) on α1B adrenoceptor (setting [2]) was found to be 0.165 µM.

In turn, `Cc1ccc(Cl)cc1N1CCN(CCCN2C(=O)C3CC=CCC3C2=O)CC1.Cl` (stereo not shown) [Compound 12, 2-[3-{4-(2-Methyl-5-chlorophenyl)piperazin-1-yl}propyl]-3a,4,7,7a-tetrahydro-1H-isoindole-1,3(2H)-dione hydrochloride] came in with a melting point of 231 to 232 °C. For the same compound, the Ki at α1A adrenoceptor (setting [1]) worked out at 0.00866 µM. Further, the “Selectivity α1B/α1A” value at α1A adrenoceptor is on record as 5.9. Moreover, the Ki at α1B adrenoceptor (setting [2]) was found to be 0.0513 µM.

`Cl.O=C1C2CC=CCC2C(=O)N1CCCN1CCN(Cc2ccccc2)CC1` (stereo not shown) [Compound 14, 2-[3-{4-(Benzyl)piperazin-1-yl}propyl]-3a,4,7,7a-tetrahydro-1H-isoindole-1,3(2H)-dione hydrochloride]: the melting point fell in the range of 275 to 278 °C. Further, at α1A adrenoceptor (setting [1]), the Ki is more than 0.5 µM. Besides, the “Selectivity α1B/α1A” value at α1A adrenoceptor worked out at 1. Also, the Ki at α1B adrenoceptor (setting [2]) was more than 0.5 µM.

Turning to `Cl.O=C1C2CC=CCC2C(=O)N1CCCN1CCN(CC=Cc2ccccc2)CC1` (stereo not shown) [Compound 15, 2-[3-{4-(Cinnamyl)piperazin-1-yl}propyl]-3a,4,7,7a-tetrahydro-1H-isoindole-1,3(2H)-dione hydrochloride], the melting point was 263 to 265 °C. Also, at α1A adrenoceptor (setting [1]), the Ki was more than 0.5 µM. Also, the “Selectivity α1B/α1A” value at α1A adrenoceptor is 1. At α1B adrenoceptor (setting [2]), the Ki is more than 0.5 µM.

`Cl.O=C1C2CC=CCC2C(=O)N1CCCN1CCN(c2ccc([N+](=O)[O-])cc2)CC1` (stereo not shown) [Compound 16, 2-[3-{4-(4-Nitrophenyl)piperazin-1-yl}propyl]-3a,4,7,7a-tetrahydro-1H-isoindole-1,3(2H)-dione hydrochloride] displayed a melting point of 259.5 to 261 °C. Moreover, the Ki at α1A adrenoceptor (setting [1]) is more than 0.5 µM. Further, the “Selectivity α1B/α1A” value at α1A adrenoceptor turned out to be 1. For the same compound, at α1B adrenoceptor (setting [2]), the Ki is more than 0.5 µM.

As for `Cc1ccc(N2CCN(CCCN3C(=O)C4CC=CCC4C3=O)CC2)cc1Cl.Cl` (stereo not shown) [Compound 17, 2-[3-{4-(3-Chloro-4-methylphenyl)piperazin-1-yl}propyl]-3a,4,7,7a-tetrahydro-1H-isoindole-1,3(2H)-dione hydrochloride], the melting point lay within 248 to 249 °C. For the same compound, the Ki at α1A adrenoceptor (setting [1]) turned out to be 0.048 µM. Besides, at α1A adrenoceptor, the “Selectivity α1B/α1A” value is given as 0.78. At α1B adrenoceptor (setting [2]), the Ki is 0.037 µM.

Consider `O=C1[C@H]2CC=CC[C@H]2C(=O)N1CCCN1CCN(C(c2ccc(F)cc2)c2ccc(F)cc2)CC1` [Compound 19, 2-[3-{4-(Bis-4-fluorophenyl)methylpiperazin-1-yl}propyl]-3a,4,7,7a-tetrahydro-1H-isoindole-1,3(2H)-dione hydrochloride], for which the Ki at α1A adrenoceptor (setting [1]) was determined as 0.00526 µM; on α1B adrenoceptor (setting [2]), 0.081 µM. In addition, at α1A adrenoceptor, the “Selectivity α1B/α1A” value was determined as 15.
